#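 96-well plates; 48 h exposure; 5 concentrations. Endpoints by linear interpolation between flanking doses. Not reached: highest tested concentration assigned. GI50 = concentration required for 50% inhibition of growth.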 Activity calls are given as the source filed them. Rule as the data show it: active = GI50 up to about 1.1 µM and inactive = higher.
# Tests used:
# Test in all cases: NCI tumour cell line growth inhibition, 48 h
# [1] = system: OVCAR-8
# [2] = system: M19-MEL
# [3] = system: HCT-15
# [4] = system: 786-0
# [5] = system: ACHN
# [6] = system: XF498
# [7] = system: KM-20L2
# [8] = system: OVCAR-4
# [9] = system: TK-10
# [10] = system: NCI-H23
# [11] = system: M14
# [12] = system: NCI-H460
# [13] = system: CCRF-CEM
# [14] = system: SK-MEL-2
# [15] = system: UACC-257
# [16] = system: SK-MEL-5
# [17] = system: SK-MEL-28
# [18] = system: A549
# [19] = system: SF-295
# [20] = system: UACC-62
# [21] = system: HOP-18
# [22] = system: OVCAR-3
# [23] = system: EKVX
# [24] = system: HOP-92
# [25] = system: MOLT-4
# [26] = system: SNB-75
# [27] = system: LOX IMVI
# [28] = system: RXF 393
# [29] = system: U-251
# [30] = system: HOP-62
# [31] = system: SK-OV-3
# [32] = system: UO-31
# [33] = system: Malme-3M
# [34] = system: IGROV-1
# [35] = system: K562
# [36] = system: DLD-1
# [37] = system: NCI-H522
# [38] = system: KM12
# [39] = system: HCC 2998
# [40] = system: SN12C
# [41] = system: SR
# [42] = system: OVCAR-5
# [43] = system: HCT-116
# [44] = system: HT-29
# [45] = system: SW-620
# [46] = system: HL-60
# [47] = system: LXFL 529
# [48] = system: SF-539
# [49] = system: DMS-114
# [50] = system: SNB-78
# [51] = system: CAKI-1
# [52] = system: NCI-H226
# [53] = system: SNB-19
# [54] = system: RPMI-8226
# [55] = system: COLO 205
# [56] = system: DMS-273
# [57] = system: SF-268
# [58] = system: A498
smiles,measurement,setting,value
O=[N+]([O-])C1(CO)COC(CCc2ccccc2)OC1 (stereo unspecified),GI50,[1],> 100 µM (inactive)
same,GI50,[2],> 100 µM (inactive)
same,GI50,[3],> 100 µM
same,GI50,[4],> 100 µM (inactive)
same,GI50,[5],> 100 µM (inactive)
same,GI50,[6],> 100 µM (inactive)
same,GI50,[7],> 100 µM (inactive)
same,GI50,[8],> 100 µM (inactive)
same,GI50,[9],> 100 µM (inactive)
same,GI50,[10],> 100 µM (inactive)
same,GI50,[11],> 100 µM (inactive)
same,GI50,[12],> 100 µM (inactive)
same,GI50,[13],> 100 µM (inactive)
same,GI50,[14],> 100 µM (inactive)
same,GI50,[15],> 100 µM (inactive)
same,GI50,[16],> 100 µM (inactive)
same,GI50,[17],> 100 µM (inactive)
same,GI50,[18],> 100 µM (inactive)
same,GI50,[19],> 100 µM (inactive)
same,GI50,[20],> 100 µM (inactive)
same,GI50,[21],> 100 µM (inactive)
same,GI50,[22],> 100 µM (inactive)
same,GI50,[23],> 100 µM (inactive)
same,GI50,[24],7.13 µM (inactive)
same,GI50,[25],> 100 µM (inactive)
same,GI50,[26],> 100 µM (inactive)
same,GI50,[27],> 100 µM (inactive)
same,GI50,[28],> 100 µM (inactive)
same,GI50,[29],> 100 µM (inactive)
same,GI50,[30],> 100 µM (inactive)
same,GI50,[31],> 100 µM (inactive)
same,GI50,[32],> 100 µM (inactive)
same,GI50,[33],> 100 µM (inactive)
same,GI50,[34],> 100 µM (inactive)
same,GI50,[35],> 100 µM (inactive)
same,GI50,[36],> 100 µM (inactive)
same,GI50,[37],> 100 µM (inactive)
same,GI50,[38],> 100 µM (inactive)
same,GI50,[39],> 100 µM (inactive)
same,GI50,[40],> 100 µM (inactive)
same,GI50,[41],> 100 µM (inactive)
same,GI50,[42],> 100 µM (inactive)
same,GI50,[43],> 100 µM (inactive)
same,GI50,[44],> 100 µM (inactive)
same,GI50,[45],> 100 µM (inactive)
same,GI50,[46],> 100 µM (inactive)
same,GI50,[47],> 100 µM (inactive)
same,GI50,[48],> 100 µM (inactive)
Cc1c2[nH]c3ccc(Br)cc3c2c(C)c2nccc(O)c12,GI50,[1],20.7 µM (inactive)
same,GI50,[2],14.6 µM (inactive)
same,GI50,[3],15.1 µM
same,GI50,[4],11.1 µM (inactive)
same,GI50,[5],10.1 µM (inactive)
same,GI50,[6],16.1 µM (inactive)
same,GI50,[8],16.3 µM (inactive)
same,GI50,[9],12.8 µM (inactive)
same,GI50,[10],16 µM (inactive)
same,GI50,[49],17.7 µM (inactive)
same,GI50,[11],12.8 µM (inactive)
same,GI50,[12],6.9 µM (inactive)
same,GI50,[13],7.35 µM (inactive)
same,GI50,[14],17.5 µM (inactive)
same,GI50,[15],16.4 µM (inactive)
same,GI50,[16],22.3 µM (inactive)
same,GI50,[50],16.2 µM (inactive)
same,GI50,[17],16.9 µM (inactive)
same,GI50,[18],10.2 µM (inactive)
same,GI50,[19],14.5 µM (inactive)
same,GI50,[51],13.8 µM (inactive)
same,GI50,[21],10.8 µM (inactive)
same,GI50,[22],14.6 µM (inactive)
same,GI50,[23],16.4 µM (inactive)
same,GI50,[52],16.6 µM (inactive)
same,GI50,[25],5.57 µM (inactive)
same,GI50,[26],25.8 µM (inactive)
same,GI50,[27],15.5 µM (inactive)
same,GI50,[53],14.5 µM (inactive)
same,GI50,[30],13.1 µM (inactive)
same,GI50,[32],11.1 µM (inactive)
same,GI50,[33],13 µM (inactive)
same,GI50,[35],17 µM (inactive)
same,GI50,[36],27.9 µM (inactive)
same,GI50,[37],12 µM (inactive)
same,GI50,[38],12.4 µM (inactive)
same,GI50,[39],16.2 µM (inactive)
same,GI50,[40],13.2 µM (inactive)
same,GI50,[41],12.1 µM (inactive)
same,GI50,[54],14.3 µM (inactive)
same,GI50,[42],14.5 µM (inactive)
same,GI50,[55],12.5 µM (inactive)
same,GI50,[43],13.8 µM (inactive)
same,GI50,[44],14.4 µM (inactive)
same,GI50,[45],11.7 µM (inactive)
same,GI50,[56],12.2 µM (inactive)
same,GI50,[46],12.1 µM (inactive)
same,GI50,[57],14.8 µM (inactive)
same,GI50,[48],15.6 µM (inactive)
CCc1ccc(/C(C)=N/NC(N)=S)cc1,GI50,[1],> 100 µM (inactive)
same,GI50,[2],> 100 µM (inactive)
same,GI50,[4],> 100 µM (inactive)
same,GI50,[6],0.569 µM (active)
same,GI50,[7],> 100 µM (inactive)
same,GI50,[8],37.6 µM (inactive)
same,GI50,[9],> 100 µM (inactive)
same,GI50,[10],> 100 µM (inactive)
same,GI50,[49],48.9 µM (inactive)
same,GI50,[11],> 100 µM (inactive)
same,GI50,[14],> 100 µM (inactive)
same,GI50,[16],78.2 µM (inactive)
same,GI50,[50],> 100 µM (inactive)
same,GI50,[17],> 100 µM (inactive)
same,GI50,[18],81.1 µM (inactive)
same,GI50,[19],> 100 µM (inactive)
same,GI50,[51],70 µM (inactive)
same,GI50,[20],31.8 µM (inactive)
same,GI50,[21],> 100 µM (inactive)
same,GI50,[22],> 100 µM (inactive)
same,GI50,[23],> 100 µM (inactive)
same,GI50,[24],> 100 µM (inactive)
same,GI50,[25],17.2 µM (inactive)
same,GI50,[28],47.3 µM (inactive)
same,GI50,[29],> 100 µM (inactive)
same,GI50,[53],> 100 µM (inactive)
same,GI50,[30],> 100 µM (inactive)
same,GI50,[31],> 100 µM (inactive)
same,GI50,[32],> 100 µM (inactive)
same,GI50,[33],25.8 µM (inactive)
same,GI50,[34],> 100 µM (inactive)
same,GI50,[35],57.3 µM (inactive)
same,GI50,[38],> 100 µM (inactive)
same,GI50,[39],> 100 µM (inactive)
same,GI50,[41],> 100 µM (inactive)
same,GI50,[54],> 100 µM (inactive)
same,GI50,[42],13.1 µM (inactive)
same,GI50,[55],> 100 µM (inactive)
same,GI50,[43],> 100 µM (inactive)
same,GI50,[44],90.4 µM (inactive)
same,GI50,[57],> 100 µM (inactive)
same,GI50,[48],> 100 µM (inactive)
CCSc1nc(-c2ccc(OC)cc2)c(C#N)c(=O)n1C1OCC(OC(C)=O)C(OC(C)=O)C1OC(C)=O (stereo unspecified),GI50,[2],> 100 µM (inactive)
same,GI50,[3],> 100 µM
same,GI50,[4],> 100 µM (inactive)
same,GI50,[5],> 100 µM (inactive)
same,GI50,[7],> 100 µM (inactive)
same,GI50,[8],> 100 µM (inactive)
same,GI50,[9],> 100 µM (inactive)
same,GI50,[10],94.6 µM (inactive)
same,GI50,[49],72.4 µM (inactive)
same,GI50,[11],> 100 µM (inactive)
same,GI50,[12],> 100 µM (inactive)
same,GI50,[14],> 100 µM (inactive)
same,GI50,[15],> 100 µM (inactive)
same,GI50,[16],93.3 µM (inactive)
same,GI50,[50],> 100 µM (inactive)
same,GI50,[17],> 100 µM (inactive)
same,GI50,[18],> 100 µM (inactive)
same,GI50,[19],> 100 µM (inactive)
same,GI50,[51],> 100 µM (inactive)
same,GI50,[20],> 100 µM (inactive)
same,GI50,[21],30 µM (inactive)
same,GI50,[23],> 100 µM (inactive)
same,GI50,[24],> 100 µM (inactive)
same,GI50,[52],> 100 µM (inactive)
same,GI50,[25],43.5 µM (inactive)
same,GI50,[26],65.6 µM (inactive)
same,GI50,[28],> 100 µM (inactive)
same,GI50,[29],> 100 µM (inactive)
same,GI50,[53],> 100 µM (inactive)
same,GI50,[30],> 100 µM (inactive)
same,GI50,[31],> 100 µM (inactive)
same,GI50,[32],> 100 µM (inactive)
same,GI50,[33],> 100 µM (inactive)
same,GI50,[58],> 100 µM (inactive)
same,GI50,[34],77.8 µM (inactive)
same,GI50,[35],> 100 µM (inactive)
same,GI50,[36],> 100 µM (inactive)
same,GI50,[37],92 µM (inactive)
same,GI50,[38],> 100 µM (inactive)
same,GI50,[39],> 100 µM (inactive)
same,GI50,[40],> 100 µM (inactive)
same,GI50,[41],> 100 µM (inactive)
same,GI50,[54],78.5 µM (inactive)
same,GI50,[42],> 100 µM (inactive)
same,GI50,[55],> 100 µM (inactive)
same,GI50,[43],> 100 µM (inactive)
same,GI50,[44],> 100 µM (inactive)
same,GI50,[45],> 100 µM (inactive)
same,GI50,[56],> 100 µM (inactive)
same,GI50,[57],> 100 µM (inactive)
same,GI50,[47],44.6 µM (inactive)
same,GI50,[48],> 100 µM (inactive)

# From ChEMBL document CHEMBL1201862, “PubChem BioAssay data set” (2004)
